This note sets out measurements from article PMC3180442 (PLoS ONE, 2011).

In assay [1] the target is T1, RipA (Yersinia pestis, UniProt Q9ZC36). To be noted: 10 mM acid vs 10 mM acetate, butyryl-CoA as CoA donor, 100 mM Tris pH 7.0, room temperature; competing acceptor acid.
Assay [2] has as its target T1, RipA. As to conditions: active site near Glu249; crystals grown with succinyl-CoA and tacsimate pH 5.0; acetate is the CoA acceptor in the activity assay.
Assay [3] addresses T1, RipA. To be noted: 5 µM RipA, 20 µM ligand, 100 mM potassium phosphate pH 7.4; Tm with ligand, apo RipA 45.8 °C.
Assay [4] has as its target Yersinia pestis RipA (Yersinia pestis). In words: crystal structure.
The target is the same in assay [5]. The assay can be described thus: SAXS.
Assay [6] has the same target. In words: SEC. Background: In gel filtration, larger molecules generally elute earlier.

As to `O=C(O)CCCO` [4-hydroxybutyrate], at RipA [1], the “% decrease in the rate of acetyl-CoA formation” value (from here on “% decrease in the rate”) is recorded as 10%.

Turning to `CCCC(=O)O` [butyrate], at RipA [1], the “% decrease in the rate” value stood at 80%.

Turning to `CCC(=O)O` [propionate], on RipA [1], the “% decrease in the rate” value amounted to 80%.

As for `CC(=O)O` [acetate], the “X-ray crystal structure, 1.9 Å” value at RipA [2] was “electron density near the active site glutamate suggests an acetate molecule is located within”.

Turning to `CCCC(=O)SCCNC(=O)CCNC(=O)[C@H](O)C(C)(C)COP(=O)(O)OP(=O)(O)OC[C@H]1O[C@@H](n2cnc3c(N)ncnc32)[C@H](O)[C@@H]1OP(=O)(O)O` [Butyryl-CoA], the “Tm (°C)” value on RipA [3] came to 53.4±0.05 °C.

For orientation: stoichiometry N means a count of units in the complex or per binding partner. For the compound Yersinia pestis RipA (enzyme), the stoichiometry N in assay [4], in assay [5] and in assay [6] was 4 throughout.

Regarding `CC(=O)SCCNC(=O)CCNC(=O)[C@H](O)C(C)(C)COP(=O)(O)OP(=O)(O)OC[C@H]1O[C@@H](n2cnc3c(N)ncnc32)[C@H](O)[C@@H]1OP(=O)(O)O` [Acetyl-CoA], the “Tm (°C)” value at RipA [3] stood at 52.8±0.03 °C.

For `C/C=C/C(=O)SCCNC(=O)CCNC(=O)[C@H](O)C(C)(C)COP(=O)(O)OP(=O)(O)OC[C@H]1O[C@@H](n2cnc3c(N)ncnc32)[C@H](O)[C@@H]1OP(=O)(O)O` [Crotonyl-CoA], the “Tm (°C)” value at RipA [3] came to 47.9±0.54 °C.

Regarding `CC(=O)CC(=O)SCCNC(=O)CCNC(=O)[C@H](O)C(C)(C)COP(=O)(O)OP(=O)(O)OC[C@H]1O[C@@H](n2cnc3c(N)ncnc32)[C@H](O)[C@@H]1OP(=O)(O)O` [Aceto-acetyl-CoA], on RipA [3], the “Tm (°C)” value was found to be 48.3±0.01 °C.

As to `CC(C)(COP(=O)(O)OP(=O)(O)OC[C@H]1O[C@@H](n2cnc3c(N)ncnc32)[C@H](O)[C@@H]1OP(=O)(O)O)[C@@H](O)C(=O)NCCC(=O)NCCSC(=O)CCC(=O)O` [Succinyl-CoA], at RipA [3], the “Tm (°C)” value is 52.8±0.28 °C.

As to `CCC(=O)SCCNC(=O)CCNC(=O)[C@H](O)C(C)(C)COP(=O)(O)OP(=O)(O)OC[C@H]1O[C@@H](n2cnc3c(N)ncnc32)[C@H](O)[C@@H]1OP(=O)(O)O` [Propionyl-CoA], the “Tm (°C)” value on RipA [3] was found to be 53.5±0.06 °C.
